A word on the MIC: it is the least concentration at which growth counts as inhibited. A low value points to greater potency. The ED50 is the dose that gives a 50% effect, or the effect in half of the subjects.

Among the data in patent US20070049564A1 (Wyeth, priority 2005, published 2007) are MIC and ED50 values, retold here.

One assay deals with Salmonella spp. GC 235. The assay is described as follows: MIC, broth microdilution. Particulars: Salmonella. On the technique in general: In broth dilution the organism is exposed to a series of concentrations in liquid medium.
In a further assay the test system is Salmonella spp. GC 566. As to the kind of experiment: MIC, broth microdilution. Particulars: Salmonella.
The test system of another assay is S. cholerasius GC 1355. The assay is described as follows: MIC, broth microdilution.
In a further assay the test system is E. coli #311. As to the kind of experiment: In vivo activity (oral, iv; ED50) against E. coli in mice. Conditions: Escherichia coli. The source says:
. […] Smith and E. Coli #311 in mammals.
Results of the tests (MIC, oral and IV) are list in Table 7.

The mark [1] stands for this setting: SPP.GC235, Salmonella spp. GC 235, Mouse Serum pre-incubation.
[2] abbreviates: SPP.GC235, Salmonella spp. GC 235, Water pre-incubation.
Where [3] appears, read: SPP.GC566, Salmonella spp. GC 566, Mouse Serum pre-incubation.
Where [4] appears, read: SPP.GC566, Salmonella spp. GC 566, Water pre-incubation.
[5] abbreviates: S. cholerasius GC 1355, Mouse Serum pre-incubation.
Where [6] appears, read: S. cholerasius GC 1355, Water pre-incubation.
Setting [7] is: single intravenous dose (SIV), read-out: ED50 E. coli #311 SIV.
Setting [8] is: single oral dose (SOD), read-out: ED50 E. coli #311 SOD.

≈ marks a conversion by molar mass, not a printed value. Read-outs that look alike come from different tables or passages of the source.

Protocol for Salmonella spp. GC 235: Antimicrobial susceptibility testing. The in vitro activities of the antibiotics are determined by the broth microdilution method as recommended by the National Committee for Clinical Laboratory Standards (NCCLS) (1). Mueller-Hinton II broth (MHBII)(BBL Cockeysville, Md.) is the medium employed in the testing procedures. Microtiter plates containing serial dilutions of each antimicrobial agent are inoculated with each organism to yield the appropriate density (10^5 CFU/ml) in a 100 μl final volume. The plates are incubated for 18-22 hours at 35° C. in ambient air.
Representative compounds were first incubated in mouse serum for an hour prior to the in vitro testing against a panel of selected gram-positive and gram-negative bacteria strains. All compounds were also pre-incubated in water for an hour prior to testing as control.

As for `CCCN(CC(=O)Nc1cc(N(C)C)c2c(c1O)C(=O)C1=C(O)[C@]3(O)C(=O)C(C(N)=O)=C(O)C(N(C)C)C3CC1C2)C(=O)OCc1oc(=O)oc1-c1ccccc1` (stereo in doubt) [Example 110, (2-oxo-5-phenyl-1,3-dioxol-4-yl)methyl 2-{[(7R,10aS)-9-(aminocarbonyl)-4,7-bis(dimethylamino)-1,8,10a,11-tetrahydroxy-10,12-dioxo-5,5a,6,6a,7,10,10a,12-octahydrotetracen-2-yl]amino}-2-oxoethyl(propyl)carbamate], the minimal inhibitory concentration (MIC) in the assay on Salmonella spp. GC 235 (SPP.GC235, pre-incubation in mouse serum) is 4 µg/mL (≈ 5.06 µM); against Salmonella spp. GC 235 (SPP.GC235, pre-incubation in water), 8 µg/mL (≈ 10.1 µM); with Salmonella spp. GC 566 (SPP.GC566, pre-incubation in mouse serum) it was 16 µg/mL (≈ 20.3 µM); with Salmonella spp. GC 566 (SPP.GC566, pre-incubation in water), 32 µg/mL (≈ 40.5 µM); against S. cholerasius GC 1355 (pre-incubation in mouse serum), above 64 µg/mL; in the assay on S. cholerasius GC 1355 (pre-incubation in water) it was above 64 µg/mL.
In the case of `CCCCN(CC(=O)Nc1cc(N(C)C)c2c(c1O)C(=O)C1=C(O)[C@]3(O)C(=O)C(C(N)=O)=C(O)[C@@H](N(C)C)C3CC1C2)C(=O)OCOC(=O)c1ccc(OC)cc1` (stereo partly drawn) [Example 2, ({[(2-{[(7S,10aS)-9-(aminocarbonyl)-4,7-bis(dimethylamino)-1,8,10a,11-tetrahydroxy-10,12-dioxo-5,5a,6,6a,7,10,10a,12-octahydrotetracen-2-yl]amino}-2-oxoethyl)(butyl)amino]carbonyl}oxy)methyl 4-methoxybenzoate], the MIC against Salmonella spp. GC 235 (setting [1]) was 8 µg/mL (≈ 10.1 µM); with Salmonella spp. GC 235 (setting [2]) it was above 64 µg/mL; against Salmonella spp. GC 566 (setting [3]) it was 8 µg/mL (≈ 10.1 µM); in the assay with Salmonella spp. GC 566 (setting [4]), above 64 µg/mL; in the assay with S. cholerasius GC 1355 (setting [5]), above 64 µg/mL; with S. cholerasius GC 1355 (setting [6]), above 64 µg/mL.
On to `CCCCN(CC(=O)Nc1cc(N(C)C)c2c(c1O)C(=O)C1=C(O)[C@]3(O)C(=O)C(C(N)=O)=C(O)[C@@H](N(C)C)C3CC1C2)C(=O)OCOC(=O)c1ccc(C)cc1` (stereo partly drawn) [Example 3, ({[(2-{[(7S,10aS)-9-(aminocarbonyl)-4,7-bis(dimethylamino)-1,8,10a,11-tetrahydroxy-10,12-dioxo-5,5a,6,6a,7,10,10a,12-octahydrotetracen-2-yl]amino}-2-oxoethyl)(butyl)amino]carbonyl}oxy)methyl 4-methylbenzoate], for which the MIC with Salmonella spp. GC 235 (setting [1]) was 2 µg/mL (≈ 2.57 µM); in the assay with Salmonella spp. GC 235 (setting [2]), above 64 µg/mL; in the assay with Salmonella spp. GC 566 (setting [3]), 4 µg/mL (≈ 5.14 µM); against Salmonella spp. GC 566 (setting [4]), above 64 µg/mL; against S. cholerasius GC 1355 (setting [5]), 16 µg/mL (≈ 20.6 µM); in the assay with S. cholerasius GC 1355 (setting [6]), above 64 µg/mL.
For `CCCN(CC(=O)Nc1cc(N(C)C)c2c(c1O)C(=O)C1=C(O)[C@]3(O)C(=O)C(C(N)=O)=C(O)[C@@H](N(C)C)[C@@H]3C[C@@H]1C2)C(=O)OCOC(=O)c1ccc(OC)cc1` [Example 6, ({[(2-{[(5aR,6aS,7S,10aS)-9-(aminocarbonyl)-4,7-bis(dimethylamino)-1,8,10a,11-tetrahydroxy-10,12-dioxo-5,5a,6,6a,7,10,10a,12-octahydrotetracen-2-yl]amino}-2-oxoethyl)(propyl)amino]carbonyl}oxy)methyl 4-methoxybenzoate], the minimum inhibitory concentration (MIC) against Salmonella spp. GC 235 (setting [1]) is 2 µg/mL (≈ 2.56 µM); against Salmonella spp. GC 235 (setting [2]), 16 µg/mL (≈ 20.5 µM); against Salmonella spp. GC 566 (setting [3]), 4 µg/mL (≈ 5.13 µM); with Salmonella spp. GC 566 (setting [4]) it was 64 µg/mL (≈ 82.1 µM); against S. cholerasius GC 1355 (setting [5]) it was 16 µg/mL (≈ 20.5 µM); against S. cholerasius GC 1355 (setting [6]), above 64 µg/mL.
Take `CCCN(CC(=O)Nc1cc(N(C)C)c2c(c1O)C(=O)C1=C(O)[C@]3(O)C(=O)C(C(N)=O)=C(O)[C@@H](N(C)C)[C@@H]3C[C@@H]1C2)C(=O)OCOC(=O)C1CCC1` [Example 7, ({[(2-{[(5aR,6aS,7S,10aS)-9-(aminocarbonyl)-4,7-bis(dimethylamino)-1,8,10a,11-tetrahydroxy-10,12-dioxo-5,5a,6,6a,7,10,10a,12-octahydrotetracen-2-yl]amino}-2-oxoethyl)(propyl)amino]carbonyl}oxy)methyl cyclobutanecarboxylate]: the MIC was 2 µg/mL (≈ 2.75 µM) with Salmonella spp. GC 235 (setting [1]); 8 µg/mL (≈ 11 µM) against Salmonella spp. GC 235 (setting [2]); 1 µg/mL (≈ 1.37 µM) in the assay on Salmonella spp. GC 566 (setting [3]); 16 µg/mL (≈ 22 µM) in the assay on Salmonella spp. GC 566 (setting [4]); 16 µg/mL (≈ 22 µM) in the assay on S. cholerasius GC 1355 (setting [5]); above 64 µg/mL against S. cholerasius GC 1355 (setting [6]).
Regarding `CCCN(CC(=O)Nc1cc(N(C)C)c2c(c1O)C(=O)C1=C(O)[C@]3(O)C(=O)C(C(N)=O)=C(O)[C@@H](N(C)C)[C@@H]3C[C@@H]1C2)C(=O)OCOC(=O)c1ccc(F)cc1` [Example 8, ({[(2-{[(5aR,6aS,7S,10aS)-9-(aminocarbonyl)-4,7-bis(dimethylamino)-1,8,10a,11-tetrahydroxy-10,12-dioxo-5,5a,6,6a,7,10,10a,12-octahydrotetracen-2-yl]amino}-2-oxoethyl)(propyl)amino]carbonyl}oxy)methyl 4-fluorobenzoate], the MIC in the assay on Salmonella spp. GC 235 (setting [1]) is 4 µg/mL (≈ 5.21 µM); in the assay on Salmonella spp. GC 235 (setting [2]), 64 µg/mL (≈ 83.4 µM); in the assay on Salmonella spp. GC 566 (setting [3]), 4 µg/mL (≈ 5.21 µM); against Salmonella spp. GC 566 (setting [4]), above 64 µg/mL; against S. cholerasius GC 1355 (setting [5]) it was 32 µg/mL (≈ 41.7 µM); in the assay with S. cholerasius GC 1355 (setting [6]), above 64 µg/mL.
As to `CCCN(CC(=O)Nc1cc(N(C)C)c2c(c1O)C(=O)C1=C(O)[C@]3(O)C(=O)C(C(N)=O)=C(O)[C@@H](N(C)C)[C@@H]3C[C@@H]1C2)C(=O)OCOC(=O)C(C)(C)C` [Example 9, ({[(2-{[(5aR,6aS,7S,10aS)-9-(aminocarbonyl)-4,7-bis(dimethylamino)-1,8,10a,11-tetrahydroxy-10,12-dioxo-5,5a,6,6a,7,10,10a,12-octahydrotetracen-2-yl]amino}-2-oxoethyl)(propyl)amino]carbonyl}oxy)methyl pivalate], the minimal inhibitory concentration (MIC) against Salmonella spp. GC 235 (setting [1]) is 1 µg/mL (≈ 1.37 µM); in the assay on Salmonella spp. GC 235 (setting [2]) it was 8 µg/mL (≈ 11 µM); in the assay with Salmonella spp. GC 566 (setting [3]), 2 µg/mL (≈ 2.74 µM); with Salmonella spp. GC 566 (setting [4]), 64 µg/mL (≈ 87.7 µM); against S. cholerasius GC 1355 (setting [5]) it was 64 µg/mL (≈ 87.7 µM); against S. cholerasius GC 1355 (setting [6]), above 64 µg/mL.
On to `CCCN(CC(=O)Nc1cc(N(C)C)c2c(c1O)C(=O)C1=C(O)[C@]3(O)C(=O)C(C(N)=O)=C(O)[C@@H](N(C)C)[C@@H]3C[C@@H]1C2)C(=O)OCOC(=O)C(C)C` [Example 10, ({[(2-{[(5aR,6aS,7S,10aS)-9-(aminocarbonyl)-4,7-bis(dimethylamino)-1,8,10a,11-tetrahydroxy-10,12-dioxo-5,5a,6,6a,7,10,10a,12-octahydrotetracen-2-yl]amino}-2-oxoethyl)(propyl)amino]carbonyl}oxy)methyl 2-methylpropanoate], for which the minimal inhibitory concentration (MIC) in the assay with Salmonella spp. GC 235 (setting [1]) was 0.5 µg/mL (≈ 0.699 µM); with Salmonella spp. GC 235 (setting [2]), 32 µg/mL (≈ 44.7 µM); in the assay with Salmonella spp. GC 566 (setting [3]), 2 µg/mL (≈ 2.79 µM); with Salmonella spp. GC 566 (setting [4]) it was above 64 µg/mL; with S. cholerasius GC 1355 (setting [5]), 16 µg/mL (≈ 22.4 µM); with S. cholerasius GC 1355 (setting [6]) it was above 64 µg/mL.
In the case of `CN(C)c1cc(NC(=O)CN(C(=O)OCOC(=O)c2ccc(C(C)(C)C)cc2)C(C)(C)C)c(O)c2c1C[C@H]1C[C@H]3[C@H](N(C)C)C(O)=C(C(N)=O)C(=O)[C@@]3(O)C(O)=C1C2=O` [Example 43, ({[(2-{[(5aR,6aS,7S,10aS)-9-(aminocarbonyl)-4,7-bis(dimethylamino)-1,8,10a,11-tetrahydroxy-10,12-dioxo-5,5a,6,6a,7,10,10a,12-octahydrotetracen-2-yl]amino}-2-oxoethyl)(tert-butyl)amino]carbonyl}oxy)methyl 4-tert-butylbenzoate], the median effective dose (ED50) with E. coli #311 (setting [7]) worked out at 3.6 mg/kg; in the assay on E. coli #311 (setting [8]) it was 60.4 mg/kg.
In the same order, the values of `CN(C)c1cc(NC(=O)CN(C(=O)OCOC(=O)C2CCCC2)C(C)(C)C)c(O)c2c1C[C@H]1C[C@H]3[C@H](N(C)C)C(O)=C(C(N)=O)C(=O)[C@@]3(O)C(O)=C1C2=O` [Example 46, ({[(2-{[(5aR,6aS,7S,10aS)-9-(aminocarbonyl)-4,7-bis(dimethylamino)-1,8,10a,11-tetrahydroxy-10,12-dioxo-5,5a,6,6a,7,10,10a,12-octahydrotetracen-2-yl]amino}-2-oxoethyl)(tert-butyl)amino]carbonyl}oxy)methyl cyclopentanecarboxylate] are 2.16 mg/kg and 29.2 mg/kg.
In the same order, the values of `CCCCOC(=O)N(CC(=O)Nc1cc(N(C)C)c2c(c1O)C(=O)C1=C(O)[C@]3(O)C(=O)C(C(N)=O)=C(O)[C@@H](N(C)C)[C@@H]3C[C@@H]1C2)C(C)(C)C` [Example 58, butyl 2-{[(5aR,6aS,7S,10aS)-9-(aminocarbonyl)-4,7-bis(dimethylamino)-1,8,10a,11-tetrahydroxy-10,12-dioxo-5,5a,6,6a,7,10,10a,12-octahydrotetracen-2-yl]amino}-2-oxoethyl(tert-butyl)carbamate] are above 8 mg/kg and above 32 mg/kg.
With `CC(C)COC(=O)N(CC(=O)Nc1cc(N(C)C)c2c(c1O)C(=O)C1=C(O)[C@]3(O)C(=O)C(C(N)=O)=C(O)[C@@H](N(C)C)[C@@H]3C[C@@H]1C2)C(C)(C)C` [Example 59, isobutyl 2-{[(5aR,6aS,7S,10aS)-9-(aminocarbonyl)-4,7-bis(dimethylamino)-1,8,10a,11-tetrahydroxy-10,12-dioxo-5,5a,6,6a,7,10,10a,12-octahydrotetracen-2-yl]amino}-2-oxoethyl(tert-butyl)carbamate], the ED50 with E. coli #311 (setting [7]) is above 8 mg/kg; in the assay on E. coli #311 (setting [8]), above 32 mg/kg.
As to `COC(=O)N(CC(=O)Nc1cc(N(C)C)c2c(c1O)C(=O)C1=C(O)[C@]3(O)C(=O)C(C(N)=O)=C(O)[C@@H](N(C)C)[C@@H]3C[C@@H]1C2)C(C)(C)C` [Example 60, methyl 2-{[(5aR,6aS,7S,10aS)-9-(aminocarbonyl)-4,7-bis(dimethylamino)-1,8,10a,11-tetrahydroxy-10,12-dioxo-5,5a,6,6a,7,10,10a,12-octahydrotetracen-2-yl]amino}-2-oxoethyl(tert-butyl)carbamate], the median effective dose (ED50) in the assay on E. coli #311 (setting [7]) is above 8 mg/kg; in the assay on E. coli #311 (setting [8]), above 32 mg/kg.
